The numbers were not newly measured in patent US9393184B2, “Oxychlorine oral rinse composition having enhanced oral-tissue compatibility for the destruction of malodorants, their putrefactive microbial sources and gum-disease pathogens and a method for the preparation thereof” (ProFresh Properties Inc., priority 2013, dated 2016), which cites them from elsewhere.

On to `O=C(O)O` [carbonic acid], for which the pKa is 6.1.

The term pKa denotes the negative logarithm of the acid dissociation constant.
